{"source": "patent US20080214845A1", "about": "“ANTIBACTERIAL 6'-MODIFIED 4,5-SUBSTITUTED AMINOGLYCOSIDE ANALOGS” (priority 2005, published 2008)", "key": {"[1]": {"tested_on": "E. Coli.", "test": "Minimum inhibitory concentration (MIC), E. coli", "type": "cell-based", "settings": "range of concentration, 20-24 hours at 37° C., A595; for MIC: Escherichia coli", "description": "(§1) The assays are carried out in 150 μL volume in duplicate in 96-well clear flat-bottom plates. The bacterial suspension from an overnight culture growth in appropriate medium is added to a solution of test compound in 2.5% DMSO in water. Final bacterial inoculum is approximately 10^2-10^3 CFU/well. The percentage growth of the bacteria in test wells relative to that observed for a control wells containing no compound is determined by measuring absorbance at 595 nm (A595) after 20-24 hours at 37° C. The MIC is determined as a range of concentration where complete inhibition of growth is observed at the higher concentration and bacterial cells are viable at the lower concentration. Both ampicillin and tetracycline are used as antibiotic positive controls in each screening assay."}, "[2]": {"tested_on": "S. Aureus", "test": "Minimum inhibitory concentration (MIC), S. aureus", "type": "cell-based", "settings": "range of concentration, 20-24 hours at 37° C., A595; for MIC: Staphylococcus aureus", "description": "as §1"}, "[3]": {"tested_on": "Staphylococcus aureus (Smith strain ATCC 13709)", "test": "Staphylococcus aureus mouse protection assay", "type": "in vivo", "settings": "Staph conc. 10^6 IP in 10% mucin, treatments at 1 hour and 3 hour post infection", "description": "Two of the novel aminoglycoside compounds of the invention were examined for their anitbacterial activity against staphylococcus aureus. The mice were infected IP with 0.5 ml […] staphylococcus aureus in 10% mucin. There were 10 mice in each treated group with treatments at 1 hour and 3 hour post infection. The Ibis compounds (IBIS00561085 R4═R5═CH3 and IBIS00561141 R4═H, R5═(CH2)2C6H5) were used at 75 mg/kg, 37.5 mg/kg, 18.8 mg/kg, 9.4 mg/kg, 4.7 mg/kg, 2.3 mg/kg, 1.17 mg/kg and 0.5 mg/kg. Amakacin, Paromomycin and Neomycin were used as the positive controls at concentration of 2 mg/kg, 1 mg/kg and 0.5 mg/kg."}}}
{"compound": "COc1ccc(CCNC[C@H]2O[C@H](O[C@H]3[C@H](O[C@@H]4O[C@H](CO)[C@@H](O[C@H]5O[C@@H](CN)[C@@H](O)[C@H](O)[C@H]5N)[C@H]4O)[C@@H](O)[C@H](N)C[C@@H]3N)[C@H](N)[C@@H](O)[C@@H]2O)cc1", "note": "[IBIS00561933]", "values": [{"measurement": "MIC", "setting": "[1]", "result": "1.25 to 2.5", "unit": "µM"}, {"measurement": "MIC", "setting": "[2]", "result": "0.31 to 0.62", "unit": "µM"}]}
{"compound": "COc1cccc(CCNC[C@H]2O[C@H](O[C@H]3[C@H](O[C@@H]4O[C@H](CO)[C@@H](O[C@H]5O[C@@H](CN)[C@@H](O)[C@H](O)[C@H]5N)[C@H]4O)[C@@H](O)[C@H](N)C[C@@H]3N)[C@H](N)[C@@H](O)[C@@H]2O)c1", "note": "[IBIS00561934]", "values": [{"measurement": "MIC E. Coli.", "setting": "[1]", "result": "1.25 to 2.5", "unit": "µM"}, {"measurement": "MIC S. Aureus", "setting": "[2]", "result": "0.31 to 0.62", "unit": "µM"}]}
{"compound": "COc1ccccc1CCNC[C@H]1O[C@H](O[C@H]2[C@H](O[C@@H]3O[C@H](CO)[C@@H](O[C@H]4O[C@@H](CN)[C@@H](O)[C@H](O)[C@H]4N)[C@H]3O)[C@@H](O)[C@H](N)C[C@@H]2N)[C@H](N)[C@@H](O)[C@@H]1O", "note": "[IBIS00561935]", "values": [{"measurement": "MIC E. Coli.", "setting": "[1]", "result": "1.25 to 2.5", "unit": "µM"}, {"measurement": "MIC S. Aureus", "setting": "[2]", "result": "0.31 to 0.62", "unit": "µM"}]}
{"compound": "NCC1OC(OC2C(CO)OC(OC3C(O)C(N)CC(N)C3OC3OC(CNCC(O)c4ccccc4)C(O)C(O)C3N)C2O)C(N)C(O)C1O", "note": "(stereo not drawn) [IBIS00561937]", "values": [{"measurement": "MIC E. Coli.", "setting": "[1]", "result": "5.0 to 10.0", "unit": "µM"}, {"measurement": "MIC S. Aureus", "setting": "[2]", "result": "0.6 to 1.2", "unit": "µM"}]}
{"compound": "NC[C@@H]1O[C@H](O[C@H]2[C@@H](O)[C@H](O[C@@H]3[C@@H](O)[C@H](N)C[C@H](N)[C@H]3O[C@H]3O[C@H](CN4CCC5CCCCC54)[C@@H](O)[C@H](O)[C@H]3N)O[C@@H]2CO)[C@H](N)[C@@H](O)[C@@H]1O", "note": "(stereo partly drawn) [IBIS00561939]", "values": [{"measurement": "MIC", "setting": "[1]", "result": "1.25 to 2.5", "unit": "µM"}, {"measurement": "MIC", "setting": "[2]", "result": "0.31 to 0.62", "unit": "µM"}]}
{"compound": "NCC1OC(OC2C(CO)OC(OC3C(O)C(N)CC(N)C3OC3OC(CNCCc4c[nH]c5ccccc45)C(O)C(O)C3N)C2O)C(N)C(O)C1O", "note": "(stereo not drawn) [IBIS00561940]", "values": [{"measurement": "MIC E. Coli.", "setting": "[1]", "result": "1.25 to 2.5", "unit": "µM"}, {"measurement": "MIC S. Aureus", "setting": "[2]", "result": "1.25 to 2.5", "unit": "µM"}]}
{"compound": "NC[C@@H]1O[C@H](O[C@H]2[C@@H](O)[C@H](O[C@@H]3[C@@H](O)[C@H](N)C[C@H](N)[C@H]3O[C@H]3O[C@H](CNCCc4ccc(C(F)(F)F)cc4)[C@@H](O)[C@H](O)[C@H]3N)O[C@@H]2CO)[C@H](N)[C@@H](O)[C@@H]1O", "note": "[IBIS00561942]", "values": [{"measurement": "MIC E. Coli.", "setting": "[1]", "result": "1.25 to 2.5", "unit": "µM"}, {"measurement": "MIC S. Aureus", "setting": "[2]", "result": "0.31 to 0.62", "unit": "µM"}]}
{"compound": "NC[C@@H]1O[C@H](O[C@H]2[C@@H](O)[C@H](O[C@@H]3[C@@H](O)[C@H](N)C[C@H](N)[C@H]3O[C@H]3O[C@H](CNCCc4cccc(C(F)(F)F)c4)[C@@H](O)[C@H](O)[C@H]3N)O[C@@H]2CO)[C@H](N)[C@@H](O)[C@@H]1O", "note": "[IBIS00561943]", "values": [{"measurement": "MIC", "setting": "[1]", "result": "0.6 to 1.2", "unit": "µM"}, {"measurement": "MIC", "setting": "[2]", "result": "0.16 to 0.31", "unit": "µM"}]}
{"compound": "NC[C@@H]1O[C@H](O[C@H]2[C@@H](O)[C@H](O[C@@H]3[C@@H](O)[C@H](N)C[C@H](N)[C@H]3O[C@H]3O[C@H](CNCCc4ccc(F)cc4)[C@@H](O)[C@H](O)[C@H]3N)O[C@@H]2CO)[C@H](N)[C@@H](O)[C@@H]1O", "note": "[IBIS00561944]", "values": [{"measurement": "MIC E. Coli.", "setting": "[1]", "result": "0.6 to 1.2", "unit": "µM"}, {"measurement": "MIC S. Aureus", "setting": "[2]", "result": "0.16 to 0.31", "unit": "µM"}]}
{"compound": "NC[C@@H]1O[C@H](O[C@H]2[C@@H](O)[C@H](O[C@@H]3[C@@H](O)[C@H](N)C[C@H](N)[C@H]3O[C@H]3O[C@H](CO)[C@@H](O)[C@H](O)[C@H]3N)O[C@@H]2CO)[C@H](N)[C@@H](O)[C@@H]1O", "note": "[Paromomycin]", "values": [{"measurement": "# Dead mice/Total mice in group", "setting": "[3]; 0.5 mg/kg", "result": "10/10 (10% Mucin)"}, {"measurement": "# Dead mice/Total mice in group", "setting": "[3]; 1 mg/kg", "result": "10/10 (10% Mucin)"}, {"measurement": "# Dead mice/Total mice in group", "setting": "[3]; 2 mg/kg", "result": "9/10 (10% Mucin)"}]}
{"compound": "Neomycin", "values": [{"measurement": "# Dead mice/Total mice in group", "setting": "[3]; 0.5 mg/kg", "result": "7/10 (10% Mucin)"}, {"measurement": "# Dead mice/Total mice in group", "setting": "[3]; 1 mg/kg", "result": "10/10 (10% Mucin)"}, {"measurement": "# Dead mice/Total mice in group", "setting": "[3]; 2 mg/kg", "result": "4/10 (10% Mucin)"}]}
